Results as given in ChEMBL document CHEMBL1250510, “2,3-diarylxanthones as strong scavengers of reactive oxygen and nitrogen species: a structure-activity relationship study” (Bioorg Med Chem, 2010).
Calls of active or inactive are those of the source. The calls are words filed in the database; no cut-off is given here.

Tests used:
Format in all cases: functional
[1] = Antioxidant activity assessed as peroxynitrite scavenging activity by spectrophotometry in absence of NaHCO3
[2] = Antioxidant activity assessed as peroxynitrite scavenging activity by spectrophotometry in presence of NaHCO3
[3] = Antioxidant activity assessed as hydrogen peroxide scavenging activity at 125 uM by spectrophotometry
[4] = Antioxidant activity assessed as singlet oxygen scavenging activity at 100 uM by spectrophotometry
[5] = Antioxidant activity assessed as superoxide radical scavenging activity at 200 uM by spectrophotometry
[6] = Antioxidant activity assessed as hypocholrous acid scavenging activity by spectrophotometry
[7] = Antioxidant activity assessed as nitric oxide scavenging activity by spectrophotometry
[8] = Antioxidant activity assessed as peroxyl radical scavenging activity assessed as trolox equivalent by spectrophotometry
[9] = Antioxidant activity assessed as hydrogen peroxide scavenging activity at 250 uM by spectrophotometry
[10] = Antioxidant activity assessed as superoxide radical scavenging activity by spectrophotometry
[11] = Antioxidant activity assessed as singlet oxygen scavenging activity by spectrophotometry
[12] = Antioxidant activity assessed as nitric oxide scavenging activity at 200 uM by spectrophotometry
[13] = Antioxidant activity assessed as superoxide radical scavenging activity at 25 uM by spectrophotometry
[14] = Antioxidant activity assessed as peroxyl radical scavenging activity assessed as trolox equivalent at 1 uM by spectrophotometry
[15] = Antioxidant activity assessed as peroxynitrite scavenging activity at 50 uM by spectrophotometry in presence of NaHCO3
[16] = Antioxidant activity assessed as peroxynitrite scavenging activity at 50 uM by spectrophotometry in absence of NaHCO3
[17] = Antioxidant activity assessed as hydrogen peroxide scavenging activity by spectrophotometry

## O=c1c2ccccc2[se]n1-c1ccccc1 [EBSELEN]
[1]
  IC50: 2.01 µM
[2]
  IC50: 0.5 µM

## O=c1c2ccccc2oc2cc(-c3ccccc3)c(-c3ccc(O)cc3)cc12
[3]
  inhibition: inactive
[4]
  IC50: 80 µM
[5]
  inhibition: inactive
[6]
  IC50: 72.1 µM
[1]
  IC50: 1.8 µM
[7]
  IC50: 175 µM
[2]
  IC50: 1.55 µM
[8]
  trolox equivalent: 1.05

## C[C@@H]1O[C@@H](OC[C@H]2O[C@@H](Oc3c(-c4ccc(O)c(O)c4)oc4cc(O)cc(O)c4c3=O)[C@H](O)[C@@H](O)[C@@H]2O)[C@H](O)[C@H](O)[C@H]1O [RUTIN]
[7]
  IC50: 2.53 µM

## O=c1c2ccccc2oc2cc(-c3ccc(O)c(O)c3)c(-c3ccc(O)c(O)c3)cc12
[4]
  IC50: 2.5 µM
[6]
  IC50: 1.2 µM
[1]
  IC50: 0.33 µM
[7]
  IC50: 0.39 µM
[9]
  inhibition: 17%
[2]
  IC50: 0.17 µM
[8]
  trolox equivalent: 0.28
[10]
  IC50: 10.4 µM

## O=c1c(O)c(-c2ccc(O)c(O)c2)oc2cc(O)cc(O)c12 [QUERCETIN]
[11]
  IC50: 1.8 µM

## O=c1c2ccccc2oc2cc(-c3ccc(O)cc3)c(-c3ccc(O)cc3)cc12
[3]
  inhibition: inactive
[4]
  IC50: 58.4 µM
[6]
  IC50: 22.4 µM
[1]
  IC50: 0.97 µM
[7]
  IC50: 108 µM
[2]
  IC50: 1.72 µM
[8]
  trolox equivalent: 2.88
[10]
  IC50: 166 µM

## O=c1c2ccccc2oc2cc(-c3ccc(O)c(O)c3)c(-c3ccc(O)cc3)cc12
[4]
  IC50: 6.8 µM
[6]
  IC50: 7.5 µM
[1]
  IC50: 0.89 µM
[7]
  IC50: 0.62 µM
[9]
  inhibition: 12%
[2]
  IC50: 0.22 µM
[8]
  trolox equivalent: 0.83
[10]
  IC50: 31.3 µM

## O=c1c2ccccc2oc2cc(-c3ccccc3)c(-c3ccccc3)cc12
[3]
  inhibition: inactive
[4]
  inhibition: 27%
[12]
  inhibition: 39%
[13]
  inhibition: inactive
[6]
  IC50: 155 µM
[14]
  inhibition: inactive
[15]
  inhibition: 29%
[16]
  inhibition: 48%

## O=C1O[C@H]([C@@H](O)CO)C(O)=C1O [ASCORBIC ACID]
[17]
  IC50: 602 µM
[8]
  IC50: 0.22 µM

## O=c1c2ccccc2oc2cc(-c3ccc(O)c(O)c3)c(-c3ccccc3)cc12
[4]
  IC50: 4.5 µM
[6]
  IC50: 10.8 µM
[1]
  IC50: 0.67 µM
[7]
  IC50: 1.22 µM
[9]
  inhibition: 9%
[2]
  IC50: 0.37 µM
[8]
  trolox equivalent: 0.84
[10]
  IC50: 76 µM

## O=S(=O)(O)c1cc(O)c(O)c(S(=O)(=O)O)c1 [TIRON]
[10]
  IC50: 273 µM

## O=c1c2ccccc2oc2cc(-c3ccc(O)cc3)c(-c3ccc(O)c(O)c3)cc12
[4]
  IC50: 3.3 µM
[6]
  IC50: 14.7 µM
[1]
  IC50: 0.78 µM
[7]
  IC50: 0.42 µM
[9]
  inhibition: 14%
[2]
  IC50: 0.26 µM
[8]
  trolox equivalent: 0.88
[10]
  IC50: 20.3 µM

## O=c1c2ccccc2oc2cc(-c3ccc(O)cc3)c(-c3ccccc3)cc12
[3]
  inhibition: inactive
[4]
  IC50: 68.8 µM
[5]
  inhibition: inactive
[12]
  inhibition: 41%
[6]
  IC50: 53.8 µM
[1]
  IC50: 2 µM
[2]
  IC50: 2.66 µM
[8]
  trolox equivalent: 2.08

## O=c1c2ccccc2oc2cc(-c3ccccc3)c(-c3ccc(O)c(O)c3)cc12
[4]
  IC50: 6 µM
[6]
  IC50: 15.7 µM
[1]
  IC50: 0.54 µM
[7]
  IC50: 1.88 µM
[9]
  inhibition: 9%
[2]
  IC50: 0.4 µM
[8]
  trolox equivalent: 0.76
[10]
  IC50: 28.1 µM

## O=C(O)CCCC[C@@H](S)CCS [DIHYDROLIPOIC ACID]
[6]
  IC50: 2.3 µM
